Tested on: coccidial contaminated litter
Assay: Example 2: live performance of male broiler chickens, coccidial contaminated litter added to pens
Type: in vivo
Settings: 22 ppm Virginiamycin, throughout the test
Method: In this example, the live performance of male broiler chickens during a standard diet program with and without an embodiment of the disclosed combination was determined. In this embodiment, the combination comprised Virginiamycin and different levels of the composition, particularly 0 ppm, 150 ppm, 200 ppm, and 250 ppm, and further comprising Avatec 90. A disease challenge was presented in each pen by adding coccidial contaminated litter to the pen.

Virginiamycin
feed conversion rates: improved feed conversion rates

Reference: patent publication US10413581B2, “Combination, composition, and method of administering the combination or composition to animals” (Phibro Animal Health Corporation, priority 2014, dated 2019)
